Assay results as given in US20240398811A1, “PRC2 INHIBITORS FOR USE IN TREATING BLOOD DISORDERS” (ORIC Pharmaceuticals, Inc., priority 2021, published 2024).
pIC50: −log10 of the molar value.

Target: purified human, His-tagged PRC2 complex (Homo sapiens (Human), UniProt O75530)
Experiment: Hot Spot HMT assay, inhibition of PRC2 enzymatic activity
Type: biochemical
Conditions: 10 nM PRC2 complex, 1 μM 3H-SAM, core histone H3, 10-point dose-response
From the text: The assay uses purified human, His-tagged PRC2 complex, including N-terminal His-tagged EZH2 enzyme, N-terminal Flag-tagged embryonic ectoderm development protein (EED), N-terminal His-tagged suppressor of zeste 12 (SUZ12), N-terminal His-tagged AEBP2, and N-terminal His-tagged RbAp48. In this assay, the transfer of the tritiated methyl group from radiolabeled S-adenosyl methionine (SAM) to purified core histone protein by EZH2 is quantitated after filtration to determine the activity of the core PRC2 complex in the presence and absence of compound.
The initial starting concentration for the serial dilutions of each compound was 1.0 μM. […] SAH (S-(5-adenosyl)-L-homocysteine) was used as a positive control for assay validation.
An aliquot of each serial dilution of test compound was added to deep 384 well plate using Acoustic Technology instrument (Echo 550, LabCyte) containing reaction buffer (50 mM Tris-HCl (pH 8.)), 0.01% Brij35, 1 mM EDTA, 1 mM DTT, 1 mM PMSF and 1% DMSO), 10 nM purified PRC2 complex and 0.05 mg/ml core histone H3 in a 5 μl volume. The reaction was mixed gently and then pre-incubated for 20 min at 30° C. The enzymatic reaction was initiated by adding 1 μM S-Adenosyl-L-[methyl-^3H]methionine and incubated for 1 hr at 30° C. After 1 hr, the reaction product was detected using a filter binding method and the amount of tritiated H3 core histone was quantitated using a scintillation counter. […] Key: A=<100 nM; B=>100 nM-<500 nM; and C=>500 nM.

Chain of purified human, His-tagged PRC2 complex (O75530 whole entry): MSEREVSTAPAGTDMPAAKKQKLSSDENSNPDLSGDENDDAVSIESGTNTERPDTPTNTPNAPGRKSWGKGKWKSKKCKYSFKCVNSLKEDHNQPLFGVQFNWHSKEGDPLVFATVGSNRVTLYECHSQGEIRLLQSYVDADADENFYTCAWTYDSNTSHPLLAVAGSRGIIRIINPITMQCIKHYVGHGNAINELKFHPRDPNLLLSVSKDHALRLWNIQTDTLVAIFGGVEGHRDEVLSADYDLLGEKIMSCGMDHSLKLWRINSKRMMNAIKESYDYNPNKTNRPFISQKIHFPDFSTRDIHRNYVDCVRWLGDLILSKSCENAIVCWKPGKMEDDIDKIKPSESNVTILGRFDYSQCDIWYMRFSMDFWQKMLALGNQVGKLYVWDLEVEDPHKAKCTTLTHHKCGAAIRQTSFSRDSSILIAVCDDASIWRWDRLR
Chain of purified human, His-tagged PRC2 complex (Q15910 whole entry partner): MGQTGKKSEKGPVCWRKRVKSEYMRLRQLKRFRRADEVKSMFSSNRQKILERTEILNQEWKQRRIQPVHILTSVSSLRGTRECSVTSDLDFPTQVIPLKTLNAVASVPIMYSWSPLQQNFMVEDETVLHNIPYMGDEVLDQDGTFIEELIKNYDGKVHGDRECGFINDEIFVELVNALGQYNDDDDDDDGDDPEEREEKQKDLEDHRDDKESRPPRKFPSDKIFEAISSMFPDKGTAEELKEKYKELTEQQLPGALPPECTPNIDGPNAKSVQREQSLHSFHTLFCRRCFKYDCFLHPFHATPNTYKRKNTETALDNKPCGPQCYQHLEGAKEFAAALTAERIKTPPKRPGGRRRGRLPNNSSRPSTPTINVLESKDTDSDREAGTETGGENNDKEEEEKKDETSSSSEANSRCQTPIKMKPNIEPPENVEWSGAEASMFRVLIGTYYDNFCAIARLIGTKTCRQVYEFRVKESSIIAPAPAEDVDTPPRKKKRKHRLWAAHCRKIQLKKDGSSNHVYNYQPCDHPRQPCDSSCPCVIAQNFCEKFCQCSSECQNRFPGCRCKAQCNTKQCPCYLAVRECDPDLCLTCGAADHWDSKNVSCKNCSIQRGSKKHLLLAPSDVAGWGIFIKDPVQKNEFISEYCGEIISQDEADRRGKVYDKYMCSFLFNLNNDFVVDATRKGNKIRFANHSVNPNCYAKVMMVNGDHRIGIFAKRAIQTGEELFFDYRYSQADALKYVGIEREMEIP
Chain of purified human, His-tagged PRC2 complex (Q15022 whole entry partner): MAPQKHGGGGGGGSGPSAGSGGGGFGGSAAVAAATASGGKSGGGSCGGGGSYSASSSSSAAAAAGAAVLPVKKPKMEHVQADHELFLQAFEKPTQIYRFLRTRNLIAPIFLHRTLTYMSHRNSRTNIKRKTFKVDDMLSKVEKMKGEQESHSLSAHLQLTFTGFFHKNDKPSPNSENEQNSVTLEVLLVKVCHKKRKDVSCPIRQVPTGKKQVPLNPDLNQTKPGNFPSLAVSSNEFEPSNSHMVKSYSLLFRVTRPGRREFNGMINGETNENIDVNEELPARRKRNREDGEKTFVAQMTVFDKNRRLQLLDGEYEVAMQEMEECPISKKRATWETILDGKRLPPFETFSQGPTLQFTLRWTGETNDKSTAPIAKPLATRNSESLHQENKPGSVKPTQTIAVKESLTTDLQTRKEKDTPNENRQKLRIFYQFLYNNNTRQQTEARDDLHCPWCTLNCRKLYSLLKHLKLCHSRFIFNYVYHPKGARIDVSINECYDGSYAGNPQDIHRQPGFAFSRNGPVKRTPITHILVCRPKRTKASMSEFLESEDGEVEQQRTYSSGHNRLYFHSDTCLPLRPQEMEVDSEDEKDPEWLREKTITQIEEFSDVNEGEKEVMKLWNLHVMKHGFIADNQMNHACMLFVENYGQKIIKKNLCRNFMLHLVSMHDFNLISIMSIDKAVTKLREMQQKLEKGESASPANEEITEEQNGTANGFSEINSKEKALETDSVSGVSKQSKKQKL
Chain of purified human, His-tagged PRC2 complex (Q6ZN18 whole entry partner): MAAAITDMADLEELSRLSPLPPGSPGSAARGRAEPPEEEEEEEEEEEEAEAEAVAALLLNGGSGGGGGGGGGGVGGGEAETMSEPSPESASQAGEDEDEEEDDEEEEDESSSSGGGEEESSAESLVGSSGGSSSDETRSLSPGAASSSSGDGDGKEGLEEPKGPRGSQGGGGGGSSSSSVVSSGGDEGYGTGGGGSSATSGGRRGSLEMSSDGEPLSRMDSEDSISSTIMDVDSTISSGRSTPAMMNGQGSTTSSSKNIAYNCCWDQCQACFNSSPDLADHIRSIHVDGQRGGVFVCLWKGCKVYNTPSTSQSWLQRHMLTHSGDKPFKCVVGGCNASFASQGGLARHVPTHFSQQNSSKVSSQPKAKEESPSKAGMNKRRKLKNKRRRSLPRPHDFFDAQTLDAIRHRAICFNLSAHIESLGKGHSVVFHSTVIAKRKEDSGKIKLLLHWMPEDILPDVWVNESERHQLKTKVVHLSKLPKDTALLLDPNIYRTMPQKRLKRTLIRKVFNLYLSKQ
Chain of purified human, His-tagged PRC2 complex (Q09028 whole entry partner): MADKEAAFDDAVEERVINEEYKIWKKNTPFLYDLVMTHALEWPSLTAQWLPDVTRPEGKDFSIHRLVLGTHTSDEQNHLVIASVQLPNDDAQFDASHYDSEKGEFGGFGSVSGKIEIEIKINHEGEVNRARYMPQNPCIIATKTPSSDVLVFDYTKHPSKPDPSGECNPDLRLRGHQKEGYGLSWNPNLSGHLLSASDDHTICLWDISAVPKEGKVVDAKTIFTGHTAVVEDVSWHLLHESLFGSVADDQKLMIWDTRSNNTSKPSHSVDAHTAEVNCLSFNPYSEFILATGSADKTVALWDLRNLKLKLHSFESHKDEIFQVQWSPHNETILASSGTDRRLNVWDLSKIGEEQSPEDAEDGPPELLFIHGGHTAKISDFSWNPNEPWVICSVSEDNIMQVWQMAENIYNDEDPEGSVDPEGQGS

Compound	pIC50
Cc1cc(C2CCCN2)ccc1-c1cnc(NCc2c(F)ccc3c2CCO3)n2cc(C#N)nc12 (single isomer, unassigned) [Example 213, 5-(((5-fluoro-2,3-dihydrobenzofuran-4-yl)methyl)amino)-8-(2-methyl-4-(pyrrolidin-2-yl)phenyl)imidazo[1,2-c]pyrimidine-2-carbonitrile]	> 7.00
Cc1cc(C2CCCN2)ccc1-c1cnc(NCc2c(F)ccc3c2CCO3)n2cc(C#N)nc12 (single isomer, unassigned) [Example 214, 5-(((5-fluoro-2,3-dihydrobenzofuran-4-yl)methyl)amino)-8-(2-methyl-4-(pyrrolidin-2-yl)phenyl)imidazo[1,2-c]pyrimidine-2-carbonitrile]	> 7.00
COc1cc(C)c(-c2cnc(NCc3c(F)ccc4c3CCO4)n3cc(C(=O)O)nc23)cn1 [Example 6, 5-(((5-fluoro-2,3-dihydrobenzofuran-4-yl)methyl)amino)-8-(6-methoxy-4-methylpyridin-3-yl)imidazo[1,2-c]pyrimidine-2-carboxylic acid]	6.30 to 7.00
Cc1nc(C2CC2)ncc1-c1cnc(NCc2c(F)ccc3c2CCO3)n2cc(C(=O)O)nc12 [Example 7, 8-(2-cyclopropyl-4-methylpyrimidin-5-yl)-5-(((5-fluoro-2,3-dihydrobenzofuran-4-yl)methyl)amino)imidazo[1,2-c]pyrimidine-2-carboxylic acid]	> 7.00
Cc1ncccc1-c1cnc(NCc2c(F)ccc3occc23)n2cc(C(N)=O)nc12 [Example 12, 5-(((5-fluorobenzofuran-4-yl)methyl)amino)-8-(2-methylpyridin-3-yl)imidazo[1,2-c]pyrimidine-2-carboxamide]	> 7.00
Cc1nc(C2CC2)ncc1-c1cnc(NCc2c(F)ccc3c2CCO3)n2cc(C(N)=O)nc12 [Example 15, 8-(2-cyclopropyl-4-methylpyrimidin-5-yl)-5-(((5-fluoro-2,3-dihydrobenzofuran-4-yl)methyl)amino)imidazo[1,2-c]pyrimidine-2-carboxamide]	6.30 to 7.00
Cc1cn(-c2cnc(NCc3c(F)ccc4c3CCO4)n3cc(C(N)=O)nc23)cn1 [Example 17, 5-(((5-fluoro-2,3-dihydrobenzofuran-4-yl)methyl)amino)-8-(4-methyl-1H-imidazol-1-yl)imidazo[1,2-c]pyrimidine-2-carboxamide]	6.30 to 7.00
Cc1cc(-c2cnc(NCc3c(F)ccc4c3CCO4)n3cc(C(=O)N(C)C)nc23)n(C)n1 [Example 21, 8-(1,3-dimethyl-1H-pyrazol-5-yl)-5-(((5-fluoro-2,3-dihydrobenzofuran-4-yl)methyl)amino)-N,N-dimethylimidazo[1,2-c]pyrimidine-2-carboxamide]	< 6.30
Cc1ncccc1-c1cnc(NCc2c(F)ccc3occc23)n2cc(C#N)nc12 [Example 22, 5-(((5-fluorobenzofuran-4-yl)methyl)amino)-8-(2-methylpyridin-3-yl)imidazo[1,2-c]pyrimidine-2-carbonitrile]	6.30 to 7.00
Cc1nn(C(C)C)cc1-c1cnc(NCc2c(F)ccc3c2CCO3)n2cc(C#N)nc12 [Example 23, 5-(((5-fluoro-2,3-dihydrobenzofuran-4-yl)methyl)amino)-8-(1-isopropyl-3-methyl-1H-pyrazol-4-yl)imidazo[1,2-c]pyrimidine-2-carbonitrile]	6.30 to 7.00
Cc1nc(C2CC2)ncc1-c1cnc(NCc2c(F)ccc3c2CCO3)n2cc(C#N)nc12 [Example 25, 8-(2-cyclopropyl-4-methylpyrimidin-5-yl)-5-(((5-fluoro-2,3-dihydrobenzofuran-4-yl)methyl)amino)imidazo[1,2-c]pyrimidine-2-carbonitrile]	6.30 to 7.00
Cc1c(-c2cnc(NCc3c(F)ccc4c3CCO4)n3cc(C#N)nc23)cnn1C(C)C [Example 26, 5-(((5-fluoro-2,3-dihydrobenzofuran-4-yl)methyl)amino)-8-(1-isopropyl-5-methyl-1H-pyrazol-4-yl)imidazo[1,2-c]pyrimidine-2-carbonitrile]	6.30 to 7.00
Cc1cc(-c2cnc(NCc3cccc4c3OCO4)n3cc(C#N)nc23)n(C)n1 [Example 27, 5-((benzo[d][1,3]dioxol-4-ylmethyl)amino)-8-(1,3-dimethyl-1H-pyrazol-5-yl)imidazo[1,2-c]pyrimidine-2-carbonitrile]	< 6.30

Other lines, results leading:

pIC50	Compound
> 7.00	Cc1cn(-c2cnc(NCc3c(F)ccc4c3CCO4)n3cc(C(=O)O)nc23)cn1 [Example 4, 5-(((5-fluoro-2,3-dihydrobenzofuran-4-yl)methyl)amino)-8-(4-methyl-1H-imidazol-1-yl)imidazo[1,2-c]pyrimidine-2-carboxylic Acid]
> 7.00	Cc1nn(C(C)C)cc1-c1cnc(NCc2c(F)ccc3c2CCO3)n2cc(C(=O)O)nc12 [Example 5, 5-(((5-fluoro-2,3-dihydrobenzofuran-4-yl)methyl)amino)-8-(1-isopropyl-3-methyl-1H-pyrazol-4-yl)imidazo[1,2-c]pyrimidine-2-carboxylic acid]
> 7.00	Cc1c(-c2cnc(NCc3c(F)ccc4c3CCO4)n3cc(C(=O)O)nc23)cnn1C(C)C [Example 8, 5-(((5-fluoro-2,3-dihydrobenzofuran-4-yl)methyl)amino)-8-(1-isopropyl-5-methyl-1H-pyrazol-4-yl)imidazo[1,2-c]pyrimidine-2-carboxylic acid]
> 7.00	Cc1cc(-c2cnc(NCc3c(F)ccc4occc34)n3cc(C(=O)O)nc23)n(C)n1 [Example 9, 8-(1,3-dimethyl-1H-pyrazol-5-yl)-5-(((5-fluorobenzofuran-4-yl)methyl)amino)imidazo[1,2-c]pyrimidine-2-carboxylic acid]
> 7.00	Cc1cc(-c2cnc(NCc3cccc4c3CCO4)n3cc(C(=O)O)nc23)n(C)n1 [Example 10, 5-(((2,3-dihydrobenzofuran-4-yl)methyl)amino)-8-(1,3-dimethyl-1H-pyrazol-5-yl)imidazo[1,2-c]pyrimidine-2-carboxylic acid]
> 7.00	Cc1cc(-c2cnc(NCc3c(F)ccc4c3CCO4)n3cc(C(N)=O)nc23)n(C)n1 [Example 11, 8-(1,3-dimethyl-1H-pyrazol-5-yl)-5-(((5-fluoro-2,3-dihydrobenzofuran-4-yl)methyl)amino)imidazo[1,2-c]pyrimidine-2-carboxamide]
> 7.00	Cc1nn(C(C)C)cc1-c1cnc(NCc2c(F)ccc3c2CCO3)n2cc(C(N)=O)nc12 [Example 13, 5-(((5-fluoro-2,3-dihydrobenzofuran-4-yl)methyl)amino)-8-(1-isopropyl-3-methyl-1H-pyrazol-4-yl)imidazo[1,2-c]pyrimidine-2-carboxamide]
6.30 to 7.00	COc1cc(C)c(-c2cnc(NCc3c(F)ccc4c3CCO4)n3cc(C(N)=O)nc23)cn1 [Example 14, 5-(((5-fluoro-2,3-dihydrobenzofuran-4-yl)methyl)amino)-8-(6-methoxy-4-methylpyridin-3-yl)imidazo[1,2-c]pyrimidine-2-carboxamide]
> 7.00	Cc1c(-c2cnc(NCc3c(F)ccc4c3CCO4)n3cc(C(N)=O)nc23)cnn1C(C)C [Example 16, 5-(((5-fluoro-2,3-dihydrobenzofuran-4-yl)methyl)amino)-8-(1-isopropyl-5-methyl-1H-pyrazol-4-yl)imidazo[1,2-c]pyrimidine-2-carboxamide]
> 7.00	Cc1cc(-c2cnc(NCc3c(F)ccc4occc34)n3cc(C(N)=O)nc23)n(C)n1 [Example 18, 8-(1,3-dimethyl-1H-pyrazol-5-yl)-5-(((5-fluorobenzofuran-4-yl)methyl)amino)imidazo[1,2-c]pyrimidine-2-carboxamide]
> 7.00	Cc1cc(-c2cnc(NCc3cccc4c3CCO4)n3cc(C(N)=O)nc23)n(C)n1 [Example 19, 5-(((2,3-dihydrobenzofuran-4-yl)methyl)amino)-8-(1,3-dimethyl-1H-pyrazol-5-yl)imidazo[1,2-c]pyrimidine-2-carboxamide]
> 7.00	CNC(=O)c1cn2c(NCc3c(F)ccc4c3CCO4)ncc(-c3cc(C)nn3C)c2n1 [Example 20, 8-(1,3-dimethyl-1H-pyrazol-5-yl)-5-(((5-fluoro-2,3-dihydrobenzofuran-4-yl)methyl)amino)-N-methylimidazo[1,2-c]pyrimidine-2-carboxamide]
6.30 to 7.00	COc1cc(C)c(-c2cnc(NCc3c(F)ccc4c3CCO4)n3cc(C#N)nc23)cn1 [Example 24, 5-(((5-fluoro-2,3-dihydrobenzofuran-4-yl)methyl)amino)-8-(6-methoxy-4-methylpyridin-3-yl)imidazo[1,2-c]pyrimidine-2-carbonitrile]
< 6.30	Cc1cc(-c2cnc(NCc3c(Cl)ccc4c3CCO4)n3cc(C#N)nc23)n(C)n1 [Example 29, 5-(((5-chloro-2,3-dihydrobenzofuran-4-yl)methyl)amino)-8-(1,3-dimethyl-1H-pyrazol-5-yl)imidazo[1,2-c]pyrimidine-2-carbonitrile]
6.30 to 7.00	Cc1cc(-c2cnc(NCc3cccc4c3CCO4)n3cc(C#N)nc23)n(C)n1 [Example 30, 5-(((2,3-dihydrobenzofuran-4-yl)methyl)amino)-8-(1,3-dimethyl-1H-pyrazol-5-yl)imidazo[1,2-c]pyrimidine-2-carbonitrile]
